Assay results reported in patent US12174198B2, “Methods of characterizing condensate-associated characteristics of compounds and uses thereof” (Dewpoint Therapeutics, Inc., priority 2019, dated 2024).

Legend:
Type in all cases: physicochemical
PGL-3 condensates = target: T1, PGL-3 condensates (Caenorhabditis elegans, UniProt G5EBV6); experiment: Fluorescence imaging of dye partitioning in PGL-3 condensates (I-in, I-out); settings: for Ratio of intensity inside:outside PGL-3 Condensates Day 1 / Ratio of intensity inside:outside PGL-3 Condensates Day 2 / Ratio of intensity inside:outside PGL-3 Condensates Average: I-in:I-out; for Ratio of intensity inside:outside PGL-3 Condensates Day 1 / Ratio of intensity inside:outside PGL-3 Condensates Day 2 / Ratio of intensity inside:outside PGL-3 Condensates Average / Intensity Inside with Dye Average / Intensity Inside with Dye 1 / Intensity Inside with Dye 2 / Intensity Inside with Dye 3 / Intensity Outside with Dye Average / Intensity Outside with Dye 1 / Intensity Outside with Dye 2 / Intensity Outside with Dye 3: 10 μM dye; for Ratio of intensity inside:outside PGL-3 Condensates Average: average of two days; for Intensity Inside with Dye Average / Intensity Inside with Dye 1 / Intensity Inside with Dye 2 / Intensity Inside with Dye 3 / Intensity Inside Dye-No Dye: inside PGL-3 condensate; for Intensity Inside with Dye Average / Intensity Inside with Dye 1 / Intensity Inside with Dye 2 / Intensity Inside with Dye 3 / Intensity Outside with Dye Average / Intensity Outside with Dye 1 / Intensity Outside with Dye 2 / Intensity Outside with Dye 3: 5 μM protein; for Intensity Inside with Dye Average / Intensity Outside with Dye Average: average of three images; for Intensity Inside with Dye Average / Intensity Inside with Dye 1 / Intensity Inside with Dye 2 / Intensity Inside with Dye 3 / Intensity Inside Dye-No Dye / Intensity Outside with Dye Average / Intensity Outside with Dye 1 / Intensity Outside with Dye 2 / Intensity Outside with Dye 3 / Intensity Outside (Dye-No Dye): one day of experiments; for Intensity Inside with Dye 1 / Intensity Outside with Dye 1: image 1; for Intensity Inside with Dye 2 / Intensity Outside with Dye 2: image 2; for Intensity Inside with Dye 3 / Intensity Outside with Dye 3: image 3; for Intensity Inside Dye-No Dye / Intensity Outside (Dye-No Dye): background corrected; for Intensity Outside with Dye Average / Intensity Outside with Dye 1 / Intensity Outside with Dye 2 / Intensity Outside with Dye 3 / Intensity Outside (Dye-No Dye): outside PGL-3 condensate
T1 sequence (G5EBV6 1-693): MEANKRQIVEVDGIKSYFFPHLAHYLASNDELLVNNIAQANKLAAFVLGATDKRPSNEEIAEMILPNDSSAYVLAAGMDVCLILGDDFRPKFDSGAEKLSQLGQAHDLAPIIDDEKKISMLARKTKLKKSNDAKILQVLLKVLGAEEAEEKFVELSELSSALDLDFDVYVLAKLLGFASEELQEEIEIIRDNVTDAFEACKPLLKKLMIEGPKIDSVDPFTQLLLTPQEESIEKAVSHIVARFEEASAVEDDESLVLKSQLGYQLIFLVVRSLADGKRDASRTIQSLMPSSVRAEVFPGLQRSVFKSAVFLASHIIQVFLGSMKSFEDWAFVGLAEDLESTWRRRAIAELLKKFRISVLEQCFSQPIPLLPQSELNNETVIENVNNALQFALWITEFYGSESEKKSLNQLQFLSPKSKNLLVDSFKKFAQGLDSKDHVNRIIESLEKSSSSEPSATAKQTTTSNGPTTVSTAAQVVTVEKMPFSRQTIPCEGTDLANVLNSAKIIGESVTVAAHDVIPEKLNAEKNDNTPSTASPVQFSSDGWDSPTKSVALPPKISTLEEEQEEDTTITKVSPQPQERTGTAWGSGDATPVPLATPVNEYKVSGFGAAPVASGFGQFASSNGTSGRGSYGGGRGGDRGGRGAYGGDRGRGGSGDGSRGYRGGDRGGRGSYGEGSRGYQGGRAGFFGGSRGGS
Description: (§1) All dye-stocks were stored as 1 mM solutions in 100% DMSO. The dyes were dissolved in dilution buffer (DB: 14.7 mM Tris, pH 7.25, 1 mM DTT) to yield 11.765 μM dye in 1.1765 DMSO. 17 μl of dye was distributed in a 384 well non-binding plate (Greiner).
(§2) Either SNAP-tagged FUS protein or tag-free PGL-3 protein was thawed at room temperature for at least 10 min, and the buffer was exchanged to partitioning buffer (PB: 50 mM Tris pH 7.25, 500 mM KCl, 5% Glycerol, and 1 mM DTT). The protein was then diluted to 33.3 μM in PB. 3 μl of protein solution were added to the 384 well plate to initiate phase separation, yielding 20 μl of 5 μM protein and 10 μM dye in 75 mM KCl, 0.75% Glycerol, 20 mM Tris, 1 mM DTT, and 1% DMSO or for no dye control reactions, 20 μl of 5 μM protein in 75 mM KCl, 0.75% Glycerol, 20 mM Tris, 1 mM DTT.
(§3) A spinning disk confocal microscope was used to acquire images of the samples. A 60×oil high-NA objective lens was used to capture the condensate droplets. The laser power was set to 20% and the exposure times were adjusted to the fluorescence emission intensity specific for each dye. Exposure times ranged from 1-1000 ms. Appropriate filter settings were used, matching the excitation and emission spectra of the respective dyes. Three images per well were taken. The background signal of protein droplets in the absence of dye was recorded for all applied imaging conditions.
(§4) Fluorescence intensity was measured inside one exemplary target condensate (Intensity inside, I-in) per image and in a region next to the exemplary target condensate (Intensity outside, I-out) by hand using the image analysis software Fiji. An example depicting the regions measured is shown FIG. 2A. Three I-in and three I-out values were measured in total for each dye in each experiment and were averaged. The measured I-in and I-out values for FUS-SNAP condensates on one day of experiments are shown in Table 2 and Table 3, respectively. The measured I-in and I-out values for PGL-3 condensates on one day of experiments are shown in Table 4 and Table 5, respectively. All values were background corrected, based on the background images (no dye controls) taken with the same microscope conditions.
(§5) The ratios of the average intensity measured in the target condensates and outside of the target condensates were calculated by dividing I-in by I-out, although dividing I-out by I-in could also have been used. The I-in:I-out ratios determined from the two different days of experiments were then averaged. The average I-in:I-out ratios for FUS-SNAP condensates are shown in FIG. 3 and the average I-in:I-out ratios for PGL-3 condensates are shown in FIG. 4. The standard deviation between the two experiments is represented by the error bars in FIG. 3 and FIG. 4.

FUS-SNAP condensates = target: T2, FUS-SNAP condensates (Homo sapiens, UniProt P35637); experiment: Fluorescence imaging of dye partitioning in FUS-SNAP condensates (I-in, I-out); settings: for Ratio of intensity inside:outside FUS-SNAP Condensates Day 1 / Ratio of intensity inside:outside FUS-SNAP Condensates Day 2 / Ratio of intensity inside:outside FUS-SNAP Condensates Average: I-in:I-out; for Ratio of intensity inside:outside FUS-SNAP Condensates Day 1 / Ratio of intensity inside:outside FUS-SNAP Condensates Day 2 / Ratio of intensity inside:outside FUS-SNAP Condensates Average / Intensity Inside with Dye Average / Intensity Inside with Dye 1 / Intensity Inside with Dye 2 / Intensity Inside with Dye 3 / Intensity Outside with Dye Average / Intensity Outside with Dye 1 / Intensity Outside with Dye 2 / Intensity Outside with Dye 3: 10 μM dye; for Ratio of intensity inside:outside FUS-SNAP Condensates Average: average of two days; for Intensity Inside with Dye Average / Intensity Inside with Dye 1 / Intensity Inside with Dye 2 / Intensity Inside with Dye 3 / Intensity Inside Dye-No Dye: inside FUS-SNAP condensate; for Intensity Inside with Dye Average / Intensity Inside with Dye 1 / Intensity Inside with Dye 2 / Intensity Inside with Dye 3 / Intensity Outside with Dye Average / Intensity Outside with Dye 1 / Intensity Outside with Dye 2 / Intensity Outside with Dye 3: 5 μM protein; for Intensity Inside with Dye Average / Intensity Outside with Dye Average: average of three images; for Intensity Inside with Dye Average / Intensity Inside with Dye 1 / Intensity Inside with Dye 2 / Intensity Inside with Dye 3 / Intensity Inside Dye-No Dye / Intensity Outside with Dye Average / Intensity Outside with Dye 1 / Intensity Outside with Dye 2 / Intensity Outside with Dye 3 / Intensity Outside (Dye-No Dye): one day of experiments; for Intensity Inside with Dye 1 / Intensity Outside with Dye 1: image 1; for Intensity Inside with Dye 2 / Intensity Outside with Dye 2: image 2; for Intensity Inside with Dye 3 / Intensity Outside with Dye 3: image 3; for Intensity Inside Dye-No Dye / Intensity Outside (Dye-No Dye): background corrected; for Intensity Outside with Dye Average / Intensity Outside with Dye 1 / Intensity Outside with Dye 2 / Intensity Outside with Dye 3 / Intensity Outside (Dye-No Dye): outside FUS-SNAP condensate
T2 sequence (P35637 1-526): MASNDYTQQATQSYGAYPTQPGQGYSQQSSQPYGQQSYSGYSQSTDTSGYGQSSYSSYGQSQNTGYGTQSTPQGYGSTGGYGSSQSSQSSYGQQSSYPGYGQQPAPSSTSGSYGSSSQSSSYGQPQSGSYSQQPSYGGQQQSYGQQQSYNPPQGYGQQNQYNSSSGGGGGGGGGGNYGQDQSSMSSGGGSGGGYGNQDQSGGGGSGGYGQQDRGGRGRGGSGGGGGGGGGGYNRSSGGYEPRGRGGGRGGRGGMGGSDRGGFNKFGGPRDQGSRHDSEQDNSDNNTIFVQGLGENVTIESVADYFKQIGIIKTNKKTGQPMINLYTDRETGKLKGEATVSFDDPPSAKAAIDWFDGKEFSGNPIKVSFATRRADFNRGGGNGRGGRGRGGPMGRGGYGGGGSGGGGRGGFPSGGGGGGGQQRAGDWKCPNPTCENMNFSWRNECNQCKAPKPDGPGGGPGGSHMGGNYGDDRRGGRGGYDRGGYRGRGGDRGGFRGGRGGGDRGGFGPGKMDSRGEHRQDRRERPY
Description: as §1, §2, §3, §4, §5

[1] = test system: FUS-SNAP condensates versus PGL-3 condensates; experiment: Condensate preference: ratio of FUS-SNAP I-in:I-out to PGL-3 I-in:I-out; settings: average FUS-SNAP I-in:I-out divided by average PGL-3 I-in:I-out
Description: as §5

| Compound | Ratio of intensity inside:outside PGL-3 Condensates Day 1 (PGL-3 condensates) | Ratio of intensity inside:outside PGL-3 Condensates Day 2 (PGL-3 condensates) | Ratio of intensity inside:outside PGL-3 Condensates Average (PGL-3 condensates) | Intensity Inside with Dye Average (PGL-3 condensates) | Intensity Inside with Dye 1 (PGL-3 condensates) | Intensity Inside with Dye 2 (PGL-3 condensates) | Intensity Inside with Dye 3 (PGL-3 condensates) | Intensity Inside Dye-No Dye (PGL-3 condensates) | Intensity Outside with Dye Average (PGL-3 condensates) | Intensity Outside with Dye 1 (PGL-3 condensates) | Intensity Outside with Dye 2 (PGL-3 condensates) | Intensity Outside with Dye 3 (PGL-3 condensates) | Intensity Outside (Dye-No Dye) (PGL-3 condensates) | Ratio of intensity inside:outside FUS-SNAP Condensates Day 1 (FUS-SNAP condensates) | Ratio of intensity inside:outside FUS-SNAP Condensates Day 2 (FUS-SNAP condensates) | Ratio of intensity inside:outside FUS-SNAP Condensates Average (FUS-SNAP condensates) | Intensity Inside with Dye Average (FUS-SNAP condensates) | Intensity Inside with Dye 1 (FUS-SNAP condensates) | Intensity Inside with Dye 2 (FUS-SNAP condensates) | Intensity Inside with Dye 3 (FUS-SNAP condensates) | also measured |
| --- | --- | --- | --- | --- | --- | --- | --- | --- | --- | --- | --- | --- | --- | --- | --- | --- | --- | --- | --- | --- | --- |
| Polysucrose 40-fluorescein isothiocyanate conjugate [Dye 10] | 1.0 | 0.9 | 0.9 | 5674.9 | 5747.5 | 6281.4 | 4996.0 | 5528.4 | 5893.8 | 5900.4 | 6581.6 | 5199.5 | 5788.5 | 1.0 | 1.1 | 1.1 | 5756.6 | 6139.7 | 6105.5 | 5024.6 | Enrichment of dye in the condensate (fluorescent images) (FUS-SNAP condensates; FIG. 1, exemplary images of Example 2, condensate type not stated): not enriched in the condensate; Intensity Inside Dye-No Dye (FUS-SNAP condensates): 5621.4; Intensity Outside with Dye Average (FUS-SNAP condensates): 5505.3; Intensity Outside with Dye 1 (FUS-SNAP condensates): 5878.5; Intensity Outside with Dye 2 (FUS-SNAP condensates): 5846.2; Intensity Outside with Dye 3 (FUS-SNAP condensates): 4791.0; Intensity Outside (Dye-No Dye) (FUS-SNAP condensates): 5401.2; Ratio of FUS-SNAP:PGL-3 [1]: 1.1 |
| CC(=O)c1cc2cc3c4c(c2oc1=O)CCCN4CCC3 [Dye 4, Coumarin 334] | 1.4 | 1.3 | 1.3 | 204.8 | 212.2 | 205.0 | 197.2 | 84.0 | 179.0 | 178.0 | 179.6 | 179.5 | 58.6 | 2.1 | 3.0 | 2.6 | 10851.1 | 10755.9 | 10738.6 | 11058.9 | Intensity Inside Dye-No Dye (FUS-SNAP condensates): 10353.6; Intensity Outside with Dye Average (FUS-SNAP condensates): 5030.3; Intensity Outside with Dye 1 (FUS-SNAP condensates): 4894.0; Intensity Outside with Dye 2 (FUS-SNAP condensates): 5118.6; Intensity Outside with Dye 3 (FUS-SNAP condensates): 5078.2; Intensity Outside (Dye-No Dye) (FUS-SNAP condensates): 4890.2; Ratio of FUS-SNAP:PGL-3 [1]: 1.9 |
| O=C(CCCC[C@@H]1SCC2NC(=O)NC21)NCCNC(=O)c1ccc(-c2c3ccc(=O)cc-3oc3ccc(O)cc23)c(C(=O)O)c1 (stereo partly shown) [Dye 13, Biotin-4-Fluorescein] | 1.1 | 1.1 | 1.1 | 3038.9 | 2939.4 | 3141.8 | 3035.4 | 2892.4 | 2837.5 | 2781.8 | 2905.7 | 2825.1 | 2732.2 | 2.1 | 2.1 | 2.1 | 4669.4 | 4600.2 | 4189.8 | 5218.3 | Intensity Inside Dye-No Dye (FUS-SNAP condensates): 4534.2; Intensity Outside with Dye Average (FUS-SNAP condensates): 2242.3; Intensity Outside with Dye 1 (FUS-SNAP condensates): 2286.6; Intensity Outside with Dye 2 (FUS-SNAP condensates): 2244.6; Intensity Outside with Dye 3 (FUS-SNAP condensates): 2195.6; Intensity Outside (Dye-No Dye) (FUS-SNAP condensates): 2138.2; Ratio of FUS-SNAP:PGL-3 [1]: 2.0 |
